IC50 data for 34 molecules are collected here from patent US10428044B2, “3-amino-1,5,6,7-tetrahydro-4H-indol-4-ones” (Bayer Pharma Aktiengesellschaft, priority 2014, dated 2019).

A word on the IC50: it is the concentration that gives 50% inhibition.

Sequence of (recombinant) catalytic domain of human Bub1 (amino acids 704-1085) (O43683 704-1085): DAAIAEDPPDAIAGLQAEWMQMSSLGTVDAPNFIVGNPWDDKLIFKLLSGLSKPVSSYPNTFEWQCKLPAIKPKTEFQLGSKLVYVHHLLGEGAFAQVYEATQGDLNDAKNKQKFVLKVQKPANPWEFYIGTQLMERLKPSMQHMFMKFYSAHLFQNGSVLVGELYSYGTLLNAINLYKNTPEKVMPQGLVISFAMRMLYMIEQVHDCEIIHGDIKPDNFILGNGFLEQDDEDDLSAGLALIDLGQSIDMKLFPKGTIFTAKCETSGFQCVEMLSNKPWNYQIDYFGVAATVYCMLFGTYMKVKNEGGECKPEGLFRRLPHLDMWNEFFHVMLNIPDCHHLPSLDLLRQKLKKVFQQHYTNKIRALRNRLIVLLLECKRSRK

This assay addresses (recombinant) catalytic domain of human Bub1 (amino acids 704-1085) (Homo sapiens (Human), UniProt O43683). As to the kind of experiment: Bub1 kinase assay (TR-FRET). The assay is classed as biochemical. The conditions noted are these: ATP 10 μM final, peptide substrate 1 μM final, 60 min at 22° C., read-out: Biological Assay: Bub1 kinase assay median IC50. The essentials:
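Compounds were serially diluted 1:3.4 from 2 mM DMSO stocks and incubated with the enzyme reaction for 60 min at 22° C. The reaction was stopped with EDTA, and biotinylated peptide phosphorylation was read by TR-FRET using Eu anti-mouse IgG, anti-phosphoserine antibody and streptavidin-XL665. IC50 was fitted by 4-parameter logistic to inhibition normalized to no-inhibitor and no-enzyme controls.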
Consider `CC1(C)CC(=O)c2c([nH]c(-c3ccnc4[nH]cnc34)c2Nc2ccccc2)C1` [Example 221, 2-(3H-imidazo[4,5-b]pyridin-7-yl)-6,6-dimethyl-3-(phenylamino)-1,5,6,7-tetrahydro-4H-indol-4-one], for which the IC50 was 0.0131 µM.
With `CC(C)C1CC(=O)c2c([nH]c(-c3ccnc(N)c3)c2Nc2ccc(F)c(F)c2)C1` (stereo not shown) [Example 222, 2-(2-aminopyridin-4-yl)-3-[(3,4-difluorophenyl)amino]-6-(propan-2-yl)-1,5,6,7-tetrahydro-4H-indol-4-one] the figure was 0.0285 µM.
With `CC1(C)CC(=O)c2c([nH]c(-c3ccnc(N)n3)c2Nc2ccccc2)C1` [Example 223, 2-(2-aminopyrimidin-4-yl)-6,6-dimethyl-3-(phenylamino)-1,5,6,7-tetrahydro-4H-indol-4-one], the IC50 worked out at 0.0405 µM.
Next, `CC1(C)CC(=O)c2c([nH]c(-c3cc(N)ncn3)c2Nc2ccccc2)C1` [Example 224, 2-(6-aminopyrimidin-4-yl)-6,6-dimethyl-3-(phenylamino)-1,5,6,7-tetrahydro-4H-indol-4-one]: 0.248 µM; `CCC(=O)Nc1cc(-c2[nH]c3c(c2Nc2ccccc2)C(=O)CCC3)ccn1` [Example 225, N-{4-[4-oxo-3-(phenylamino)-4,5,6,7-tetrahydro-1H-indol-2-yl]pyridin-2-yl}propanamide]: 0.0267 µM.
With `CCCC(=O)Nc1cc(-c2[nH]c3c(c2Nc2ccccc2)C(=O)CCC3)ccn1` [Example 226, N-{4-[4-oxo-3-(phenylamino)-4,5,6,7-tetrahydro-1H-indol-2-yl]pyridin-2-yl}butanamide] the figure was 0.0204 µM; with `CC(C)(C)C(=O)Nc1cc(-c2[nH]c3c(c2Nc2ccccc2)C(=O)CCC3)ccn1` [Example 227, 2,2-dimethyl-N-{4-[4-oxo-3-(phenylamino)-4,5,6,7-tetrahydro-1H-indol-2-yl]pyridin-2-yl}propanamide], 0.26 µM; with `CC1(C(=O)Nc2cc(-c3[nH]c4c(c3Nc3ccccc3)C(=O)CCC4)ccn2)CC1` [Example 228, 1-methyl-N-{4-[4-oxo-3-(phenylamino)-4,5,6,7-tetrahydro-1H-indol-2-yl]pyridin-2-yl}cyclopropanecarboxamide], 0.0567 µM.
As to `O=C1CCCc2[nH]c(-c3ccnc(NC(=O)C4CCC4)c3)c(Nc3ccccc3)c21` [Example 229, N-{4-[4-oxo-3-(phenylamino)-4,5,6,7-tetrahydro-1H-indol-2-yl]pyridin-2-yl}cyclobutanecarboxamide], the IC50 came to 0.0194 µM.
Consider `CC(C)C(=O)Nc1cc(-c2[nH]c3c(c2Nc2ccccc2)C(=O)CCC3)ccn1` [Example 230, 2-methyl-N-{4-[4-oxo-3-(phenylamino)-4,5,6,7-tetrahydro-1H-indol-2-yl]pyridin-2-yl}propanamide], for which the IC50 was determined as 0.02 µM.
With `O=C(CC1CC1)Nc1cc(-c2[nH]c3c(c2Nc2ccccc2)C(=O)CCC3)ccn1` [Example 231, 2-cyclopropyl-N-{4-[4-oxo-3-(phenylamino)-4,5,6,7-tetrahydro-1H-indol-2-yl]pyridin-2-yl}acetamide] the figure was 0.0299 µM; with `CC1(C)CC1C(=O)Nc1cc(-c2[nH]c3c(c2Nc2ccccc2)C(=O)CCC3)ccn1` (stereo not shown) [Example 232, 2,2-dimethyl-N-{4-[4-oxo-3-(phenylamino)-4,5,6,7-tetrahydro-1H-indol-2-yl]pyridin-2-yl}cyclopropanecarboxamide], 0.0347 µM.
Regarding `O=C(Cc1ccccc1)Nc1cc(-c2[nH]c3c(c2Nc2ccccc2)C(=O)CCC3)ccn1` [Example 233, N-{4-[4-oxo-3-(phenylamino)-4,5,6,7-tetrahydro-1H-indol-2-yl]pyridin-2-yl}-2-phenylacetamide], the IC50 came to 0.0439 µM.
For the molecule `O=C(CCc1ccccc1)Nc1cc(-c2[nH]c3c(c2Nc2ccccc2)C(=O)CCC3)ccn1` [Example 235, N-{4-[4-oxo-3-(phenylamino)-4,5,6,7-tetrahydro-1H-indol-2-yl]pyridin-2-yl}-3-phenylpropanamide], the IC50 amounted to 0.0616 µM.
Next, `O=C(CCCc1ccccc1)Nc1cc(-c2[nH]c3c(c2Nc2ccccc2)C(=O)CCC3)ccn1` [Example 236, N-{4-[4-oxo-3-(phenylamino)-4,5,6,7-tetrahydro-1H-indol-2-yl]pyridin-2-yl}-4-phenylbutanamide]: 0.00826 µM.
As to `CC1CC1C(=O)Nc1cc(-c2[nH]c3c(c2Nc2ccccc2)C(=O)CCC3)ccn1` (stereo not shown) [Example 237, 2-methyl-N-{4-[4-oxo-3-(phenylamino)-4,5,6,7-tetrahydro-1H-indol-2-yl]pyridin-2-yl}cyclopropanecarboxamide], the IC50 stood at 0.0132 µM.
As to `O=C(Nc1cc(-c2[nH]c3c(c2Nc2ccccc2)C(=O)CCC3)ccn1)c1ccccc1` [Example 238, N-{4-[4-oxo-3-(phenylamino)-4,5,6,7-tetrahydro-1H-indol-2-yl]pyridin-2-yl}benzamide], the IC50 was 0.0177 µM.
Next, `O=C1CCCc2[nH]c(-c3ccnc(NC(=O)C4CC4c4ccccc4)c3)c(Nc3ccccc3)c21` (stereo not shown) [Example 239, N-{4-[4-oxo-3-(phenylamino)-4,5,6,7-tetrahydro-1H-indol-2-yl]pyridin-2-yl}-2-phenylcyclopropanecarboxamide]: 0.0459 µM; `CC(=O)N(C)c1cc(-c2[nH]c3c(c2Nc2ccccc2)C(=O)CC(C)(C)C3)ccn1` [Example 240, N-{4-[6,6-dimethyl-4-oxo-3-(phenylamino)-4,5,6,7-tetrahydro-1H-indol-2-yl]pyridin-2-yl}-N-methylacetamide]: 6.74 µM; `CC(F)C(=O)Nc1cc(-c2[nH]c3c(c2Nc2ccccc2)C(=O)CCC3)ccn1` (stereo not shown) [Example 241, 2-fluoro-N-{4-[4-oxo-3-(phenylamino)-4,5,6,7-tetrahydro-1H-indol-2-yl]pyridin-2-yl}propanamide]: 0.0407 µM.
With `CC(C)(F)C(=O)Nc1cc(-c2[nH]c3c(c2Nc2ccccc2)C(=O)CCC3)ccn1` [Example 242, 2-fluoro-2-methyl-N-{4-[4-oxo-3-(phenylamino)-4,5,6,7-tetrahydro-1H-indol-2-yl]pyridin-2-yl}propanamide] the figure was 0.182 µM.
Turning to `CC(C)(CO)C(=O)Nc1cc(-c2[nH]c3c(c2Nc2ccccc2)C(=O)CCC3)ccn1` [Example 243, 3-hydroxy-2,2-dimethyl-N-{4-[4-oxo-3-(phenylamino)-4,5,6,7-tetrahydro-1H-indol-2-yl]pyridin-2-yl}propanamide], the IC50 is 0.255 µM.
With `CSCC(=O)Nc1cc(-c2[nH]c3c(c2Nc2ccccc2)C(=O)CCC3)ccn1` [Example 244, 2-(methylsulfanyl)-N-{4-[4-oxo-3-(phenylamino)-4,5,6,7-tetrahydro-1H-indol-2-yl]pyridin-2-yl}acetamide] the figure was 0.031 µM.
Next, `CC(C)(C#N)C(=O)Nc1cc(-c2[nH]c3c(c2Nc2ccccc2)C(=O)CCC3)ccn1` [Example 245, 2-cyano-2-methyl-N-{4-[4-oxo-3-(phenylamino)-4,5,6,7-tetrahydro-1H-indol-2-yl]pyridin-2-yl}propanamide]: 0.0844 µM.
With `N#CC1(C(=O)Nc2cc(-c3[nH]c4c(c3Nc3ccccc3)C(=O)CCC4)ccn2)CC1` [Example 246, 1-cyano-N-{4-[4-oxo-3-(phenylamino)-4,5,6,7-tetrahydro-1H-indol-2-yl]pyridin-2-yl}cyclopropanecarboxamide] the figure was 0.0602 µM; with `CC(C(=O)Nc1cc(-c2[nH]c3c(c2Nc2ccccc2)C(=O)CCC3)ccn1)C(F)(F)F` (stereo not shown) [Example 247, 3,3,3-trifluoro-2-methyl-N-{4-[4-oxo-3-(phenylamino)-4,5,6,7-tetrahydro-1H-indol-2-yl]pyridin-2-yl}propanamide], 0.0813 µM.
Take `CS(=O)(=O)CC(=O)Nc1cc(-c2[nH]c3c(c2Nc2ccccc2)C(=O)CCC3)ccn1` [Example 248, 2-(methylsulfonyl)-N-{4-[4-oxo-3-(phenylamino)-4,5,6,7-tetrahydro-1H-indol-2-yl]pyridin-2-yl}acetamide]: the IC50 is 0.0282 µM.
With `O=C1CCCc2[nH]c(-c3ccnc(NC(=O)[C@H]4C[C@@H]4F)c3)c(Nc3ccccc3)c21` [Example 250, (R,S/S,R)-2-fluoro-N-{4-[4-oxo-3-(phenylamino)-4,5,6,7-tetrahydro-1H-indol-2-yl]pyridin-2-yl}cyclopropanecarboxamide] the figure was 0.01 µM; with `O=C1CCCc2[nH]c(-c3ccnc(NC(=O)[C@H]4C[C@@H]4F)c3)c(Nc3ccccc3)c21` [Example 251, (R,S/S,R)-2-fluoro-N-{4-[4-oxo-3-(phenylamino)-4,5,6,7-tetrahydro-1H-indol-2-yl]pyridin-2-yl}cyclopropanecarboxamide], 0.0105 µM.
On to `O=C1CCCc2[nH]c(-c3ccnc(NC(=O)[C@H]4C[C@H]4F)c3)c(Nc3ccccc3)c21` [Example 253, (1R,2R)-2-fluoro-N-{4-[4-oxo-3-(phenylamino)-4,5,6,7-tetrahydro-1H-indol-2-yl]pyridin-2-yl}cyclopropanecarboxamide], for which the IC50 was found to be 0.0233 µM.
Consider `CC1(C)CC(=O)c2c([nH]c(-c3ccnc(NC(=O)[C@@H]4C[C@@H]4F)c3)c2Nc2ccccc2)C1` [Example 258], for which the IC50 was 0.00649 µM.
Next, `CC1(C)CC(=O)c2c([nH]c(-c3ccnc(NC(=O)[C@H]4C[C@H]4F)c3)c2Nc2ccccc2)C1` [Example 259]: 0.0101 µM.
Turning to `O=C1CCCc2[nH]c(-c3ccnc(NC(=O)C4(F)CC4)c3)c(Nc3ccccc3)c21` [Example 261, 1-fluoro-N-{4-[4-oxo-3-(phenylamino)-4,5,6,7-tetrahydro-1H-indol-2-yl]pyridin-2-yl}cyclopropanecarboxamide], the IC50 was 0.0417 µM.
Next, `CC(C)(CF)C(=O)Nc1cc(-c2[nH]c3c(c2Nc2ccccc2)C(=O)CCC3)ccn1` [Example 263, 3-fluoro-2,2-dimethyl-N-{4-[4-oxo-3-(phenylamino)-4,5,6,7-tetrahydro-1H-indol-2-yl]pyridin-2-yl}propanamide]: 0.14 µM.
